How the values were obtained:
Test in all cases: SelectScreen kinase panel
Format in all cases: biochemical
[1] = molecular target: T1, ROCK2 (Homo sapiens, UniProt O75116)
T1 construct: purchased Invitrogen / ThermoFisher SelectScreen
How it was run: (§1)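 Using one of three vendor formats (Z′-LYTE, Adapta, LanthaScreen), Invitrogen measured compound effects across its SelectScreen kinase collection. Average inhibition percentages are listed.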

[2] = molecular target: T2, Mer (Homo sapiens, UniProt Q12866)
T2 construct: purchased Invitrogen / ThermoFisher SelectScreen
How it was run: as §1

[3] = molecular target: T3, ERK2 (Homo sapiens, UniProt P28482)
T3 construct: purchased Invitrogen / ThermoFisher SelectScreen
How it was run: as §1

[4] = molecular target: T4, RSK1 (Homo sapiens, UniProt Q15418)
T4 construct: purchased Invitrogen / ThermoFisher SelectScreen
How it was run: as §1

[5] = molecular target: T5, SIK2 (Homo sapiens, UniProt Q9H0K1)
T5 construct: purchased Invitrogen / ThermoFisher SelectScreen
How it was run: as §1

[6] = molecular target: T6, EphA1 (Homo sapiens, UniProt P21709)
T6 construct: purchased Invitrogen / ThermoFisher SelectScreen
How it was run: as §1

[7] = molecular target: T7, SGK1 (Homo sapiens, UniProt O00141)
T7 construct: purchased Invitrogen / ThermoFisher SelectScreen
How it was run: as §1

[8] = molecular target: T8, CDK2/CyclinA (Homo sapiens, UniProt P24941)
T8 construct: purchased Invitrogen / ThermoFisher SelectScreen
How it was run: as §1

[9] = molecular target: T9, CaMKI (Homo sapiens, UniProt Q14012)
T9 construct: purchased Invitrogen / ThermoFisher SelectScreen
T9 sequence (Q14012 whole entry): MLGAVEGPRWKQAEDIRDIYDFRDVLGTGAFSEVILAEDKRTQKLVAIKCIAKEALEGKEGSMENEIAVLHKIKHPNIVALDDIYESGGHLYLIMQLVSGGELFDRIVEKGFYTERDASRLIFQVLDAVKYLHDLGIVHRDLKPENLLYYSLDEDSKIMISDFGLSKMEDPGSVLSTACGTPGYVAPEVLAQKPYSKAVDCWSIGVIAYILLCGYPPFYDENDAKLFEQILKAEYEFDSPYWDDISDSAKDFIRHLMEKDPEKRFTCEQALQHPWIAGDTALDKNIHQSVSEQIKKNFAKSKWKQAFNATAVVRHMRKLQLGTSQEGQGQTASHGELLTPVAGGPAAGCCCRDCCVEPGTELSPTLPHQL
How it was run: as §1

[10] = molecular target: T10, CDK7/cyclinH (Homo sapiens, UniProt P50613)
T10 construct: purchased Invitrogen / ThermoFisher SelectScreen
How it was run: as §1

[11] = molecular target: T11, P38_delta (Homo sapiens, UniProt O15264)
T11 construct: purchased Invitrogen / ThermoFisher SelectScreen
How it was run: as §1

[12] = molecular target: T12, KDR (Homo sapiens, UniProt P35968)
T12 construct: purchased Invitrogen / ThermoFisher SelectScreen
T12 sequence (P35968 20-1356): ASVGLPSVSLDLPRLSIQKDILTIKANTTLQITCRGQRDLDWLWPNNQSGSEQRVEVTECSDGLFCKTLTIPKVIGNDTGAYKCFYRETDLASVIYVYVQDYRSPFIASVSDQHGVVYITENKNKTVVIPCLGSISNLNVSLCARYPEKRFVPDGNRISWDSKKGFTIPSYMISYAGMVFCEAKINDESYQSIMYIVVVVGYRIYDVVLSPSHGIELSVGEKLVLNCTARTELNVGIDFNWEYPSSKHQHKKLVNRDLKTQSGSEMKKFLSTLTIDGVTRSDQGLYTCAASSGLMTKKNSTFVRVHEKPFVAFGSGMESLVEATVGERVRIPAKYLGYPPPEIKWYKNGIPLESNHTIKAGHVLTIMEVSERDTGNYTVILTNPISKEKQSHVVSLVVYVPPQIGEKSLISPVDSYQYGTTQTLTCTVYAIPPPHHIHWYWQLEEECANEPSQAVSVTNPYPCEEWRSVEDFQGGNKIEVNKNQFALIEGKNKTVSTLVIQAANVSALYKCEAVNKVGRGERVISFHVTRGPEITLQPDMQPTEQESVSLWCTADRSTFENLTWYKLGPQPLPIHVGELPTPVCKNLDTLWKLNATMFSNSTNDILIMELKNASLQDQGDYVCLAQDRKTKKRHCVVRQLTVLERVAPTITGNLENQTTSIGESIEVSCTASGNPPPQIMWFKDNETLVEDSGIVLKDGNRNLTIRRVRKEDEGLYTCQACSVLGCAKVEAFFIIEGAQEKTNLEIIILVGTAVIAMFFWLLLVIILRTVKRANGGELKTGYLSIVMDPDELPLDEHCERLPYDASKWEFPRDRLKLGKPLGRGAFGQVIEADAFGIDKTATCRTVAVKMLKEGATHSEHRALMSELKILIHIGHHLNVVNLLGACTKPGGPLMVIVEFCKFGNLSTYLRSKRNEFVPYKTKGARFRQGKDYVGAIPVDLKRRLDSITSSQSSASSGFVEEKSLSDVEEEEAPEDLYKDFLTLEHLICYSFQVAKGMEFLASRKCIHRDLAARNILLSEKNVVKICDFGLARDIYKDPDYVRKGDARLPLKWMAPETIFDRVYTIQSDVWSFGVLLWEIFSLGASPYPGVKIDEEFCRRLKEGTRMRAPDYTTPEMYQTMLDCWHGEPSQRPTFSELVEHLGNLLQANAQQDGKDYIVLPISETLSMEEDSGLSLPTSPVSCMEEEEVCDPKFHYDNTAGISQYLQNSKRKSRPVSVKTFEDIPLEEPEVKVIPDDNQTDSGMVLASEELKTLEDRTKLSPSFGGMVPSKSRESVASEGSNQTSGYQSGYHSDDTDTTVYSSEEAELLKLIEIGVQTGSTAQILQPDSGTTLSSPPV
How it was run: as §1

[13] = molecular target: T13, ITK (Homo sapiens, UniProt Q08881)
T13 construct: purchased Invitrogen / ThermoFisher SelectScreen
How it was run: as §1

[14] = molecular target: T14, YSK1 (Homo sapiens, UniProt O00506)
T14 construct: purchased Invitrogen / ThermoFisher SelectScreen
How it was run: as §1

[15] = molecular target: T15, TAO1 (Homo sapiens, UniProt Q9UL54)
T15 construct: purchased Invitrogen / ThermoFisher SelectScreen
How it was run: as §1

[16] = molecular target: T16, NEK9 (Homo sapiens, UniProt Q8TD19)
T16 construct: purchased Invitrogen / ThermoFisher SelectScreen
How it was run: as §1

[17] = molecular target: T17, IRAK1 (Homo sapiens, UniProt P51617)
T17 construct: purchased Invitrogen / ThermoFisher SelectScreen
How it was run: as §1

[18] = molecular target: T18, IKK_beta (Homo sapiens, UniProt O14920)
T18 construct: purchased Invitrogen / ThermoFisher SelectScreen
How it was run: as §1

[19] = molecular target: T19, Ret (Homo sapiens, UniProt P07949)
T19 construct: purchased Invitrogen / ThermoFisher SelectScreen
How it was run: as §1

[20] = molecular target: T20, PhK_gamm1 (Homo sapiens, UniProt Q16816)
T20 construct: purchased Invitrogen / ThermoFisher SelectScreen
How it was run: as §1

[21] = molecular target: T21, MuSK (Homo sapiens, UniProt O15146)
T21 construct: purchased Invitrogen / ThermoFisher SelectScreen
How it was run: as §1

[22] = molecular target: T22, P38_beta (Homo sapiens, UniProt Q15759)
T22 construct: purchased Invitrogen / ThermoFisher SelectScreen
T22 sequence (Q15759 whole entry): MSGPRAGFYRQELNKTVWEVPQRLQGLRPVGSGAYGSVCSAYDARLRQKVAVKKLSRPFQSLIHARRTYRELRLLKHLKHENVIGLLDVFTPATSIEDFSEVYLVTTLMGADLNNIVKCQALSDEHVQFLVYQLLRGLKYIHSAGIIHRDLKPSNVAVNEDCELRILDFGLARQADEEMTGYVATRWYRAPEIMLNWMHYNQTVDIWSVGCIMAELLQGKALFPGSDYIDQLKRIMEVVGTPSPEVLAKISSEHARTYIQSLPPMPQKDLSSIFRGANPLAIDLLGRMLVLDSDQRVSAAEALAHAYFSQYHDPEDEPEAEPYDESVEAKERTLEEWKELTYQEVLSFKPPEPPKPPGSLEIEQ
How it was run: as §1

[23] = molecular target: T23, EphB1 (Homo sapiens, UniProt P54762)
T23 construct: purchased Invitrogen / ThermoFisher SelectScreen
How it was run: as §1

[24] = molecular target: T24, PAK1 (Homo sapiens, UniProt Q13153)
T24 construct: purchased Invitrogen / ThermoFisher SelectScreen
How it was run: as §1

[25] = molecular target: T25, CK1_epsilon1 (Homo sapiens, UniProt P49674)
T25 construct: purchased Invitrogen / ThermoFisher SelectScreen
How it was run: as §1

[26] = molecular target: T26, Axl (Homo sapiens, UniProt P30530)
T26 construct: purchased Invitrogen / ThermoFisher SelectScreen
How it was run: as §1

[27] = molecular target: T27, PASK (Homo sapiens, UniProt Q96RG2)
T27 construct: purchased Invitrogen / ThermoFisher SelectScreen
How it was run: as §1

[28] = molecular target: T28, PKC_alpha (Homo sapiens, UniProt P17252)
T28 construct: purchased Invitrogen / ThermoFisher SelectScreen
How it was run: as §1

[29] = molecular target: T29, CK1_delta (Homo sapiens, UniProt P48730)
T29 construct: purchased Invitrogen / ThermoFisher SelectScreen
How it was run: as §1

[30] = molecular target: T30, Brk (Homo sapiens, UniProt Q13882)
T30 construct: purchased Invitrogen / ThermoFisher SelectScreen
How it was run: as §1

[31] = molecular target: T31, MAP4K4 (Homo sapiens, UniProt O95819)
T31 construct: purchased Invitrogen / ThermoFisher SelectScreen
How it was run: as §1

[32] = molecular target: T32, ZAP-70 (Homo sapiens, UniProt P43403)
T32 construct: purchased Invitrogen / ThermoFisher SelectScreen
T32 sequence (P43403 whole entry): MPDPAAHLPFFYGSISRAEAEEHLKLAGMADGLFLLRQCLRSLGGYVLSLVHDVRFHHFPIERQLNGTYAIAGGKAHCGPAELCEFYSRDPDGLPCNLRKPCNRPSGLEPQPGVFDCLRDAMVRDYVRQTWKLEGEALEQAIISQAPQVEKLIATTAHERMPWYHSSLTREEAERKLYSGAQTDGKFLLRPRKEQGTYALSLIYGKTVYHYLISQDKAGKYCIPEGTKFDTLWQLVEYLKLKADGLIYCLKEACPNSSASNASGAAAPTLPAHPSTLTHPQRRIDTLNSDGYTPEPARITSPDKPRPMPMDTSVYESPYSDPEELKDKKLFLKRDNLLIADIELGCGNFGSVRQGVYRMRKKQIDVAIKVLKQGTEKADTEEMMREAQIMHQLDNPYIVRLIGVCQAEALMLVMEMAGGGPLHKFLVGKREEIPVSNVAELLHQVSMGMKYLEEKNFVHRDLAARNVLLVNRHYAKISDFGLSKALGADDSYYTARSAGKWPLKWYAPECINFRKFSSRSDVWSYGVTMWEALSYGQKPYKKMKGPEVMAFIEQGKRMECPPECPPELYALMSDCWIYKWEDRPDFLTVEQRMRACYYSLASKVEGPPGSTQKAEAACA
How it was run: as §1

[33] = molecular target: T33, InsR (Homo sapiens, UniProt P06213)
T33 construct: purchased Invitrogen / ThermoFisher SelectScreen
How it was run: as §1

T1 sequence (O75116 whole entry): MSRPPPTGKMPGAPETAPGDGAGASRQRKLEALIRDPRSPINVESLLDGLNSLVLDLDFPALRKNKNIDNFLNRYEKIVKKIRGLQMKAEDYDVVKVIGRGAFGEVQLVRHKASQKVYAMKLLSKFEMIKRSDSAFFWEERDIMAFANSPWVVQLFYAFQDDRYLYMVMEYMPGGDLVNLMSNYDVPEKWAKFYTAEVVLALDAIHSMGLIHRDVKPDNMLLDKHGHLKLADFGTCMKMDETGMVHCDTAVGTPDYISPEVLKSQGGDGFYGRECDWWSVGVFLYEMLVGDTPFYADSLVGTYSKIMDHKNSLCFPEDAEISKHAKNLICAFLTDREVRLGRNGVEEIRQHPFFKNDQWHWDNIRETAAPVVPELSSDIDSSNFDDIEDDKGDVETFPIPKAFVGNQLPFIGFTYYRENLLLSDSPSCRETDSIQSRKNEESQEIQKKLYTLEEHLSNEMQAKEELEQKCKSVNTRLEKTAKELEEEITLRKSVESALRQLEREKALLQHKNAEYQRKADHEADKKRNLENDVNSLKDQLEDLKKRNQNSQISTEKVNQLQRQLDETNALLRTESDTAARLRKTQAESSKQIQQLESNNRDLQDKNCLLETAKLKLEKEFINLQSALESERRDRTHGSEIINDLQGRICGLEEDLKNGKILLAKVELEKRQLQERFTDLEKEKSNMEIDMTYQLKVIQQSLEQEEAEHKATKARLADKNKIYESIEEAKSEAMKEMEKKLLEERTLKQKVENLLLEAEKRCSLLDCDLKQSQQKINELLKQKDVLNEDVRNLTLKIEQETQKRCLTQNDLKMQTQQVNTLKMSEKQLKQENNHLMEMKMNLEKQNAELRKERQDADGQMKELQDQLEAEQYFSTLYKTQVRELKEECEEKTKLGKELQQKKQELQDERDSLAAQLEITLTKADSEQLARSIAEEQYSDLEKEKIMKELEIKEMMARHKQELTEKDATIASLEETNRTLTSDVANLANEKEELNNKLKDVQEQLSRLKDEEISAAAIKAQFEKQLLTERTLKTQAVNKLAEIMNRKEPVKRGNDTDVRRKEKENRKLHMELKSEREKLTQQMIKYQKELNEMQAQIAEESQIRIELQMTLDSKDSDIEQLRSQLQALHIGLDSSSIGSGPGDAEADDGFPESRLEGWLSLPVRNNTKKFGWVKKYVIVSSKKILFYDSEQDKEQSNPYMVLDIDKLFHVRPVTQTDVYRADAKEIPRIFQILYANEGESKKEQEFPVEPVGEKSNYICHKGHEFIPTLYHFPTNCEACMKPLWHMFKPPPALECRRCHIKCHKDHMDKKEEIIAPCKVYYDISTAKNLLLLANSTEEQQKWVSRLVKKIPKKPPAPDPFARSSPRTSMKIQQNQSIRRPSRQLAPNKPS

Work on `COc1cc(C(N)=O)nc(-c2cccc(C#C[C@]3(O)CCN(C)C3=O)c2)c1` [NIK SMI1] yielded an inhibition at 1 µM [1] of 7.5%, an inhibition at 1 µM [2] of 3.5% and an inhibition at 1 µM [3] of 5.5%. It also gave an inhibition at 1 µM [4] of 4.5%, an inhibition at 1 µM [5] of 5.5% and an inhibition at 1 µM [6] of 2.5%. For the same compound, the inhibition at 1 µM [7] was 5%, the inhibition at 1 µM [8] was -1.5% and the inhibition at 1 µM [9] was 18.3%. The inhibition at 1 µM [10] was -5.5%, the inhibition at 1 µM [11] was 12.5% and the inhibition at 1 µM [12] was -1.5%. For the same compound, the inhibition at 1 µM [13] was -3%, the inhibition at 1 µM [14] was 39% and the inhibition at 1 µM [15] was 17%. The inhibition at 1 µM [16] was 1.5%, the inhibition at 1 µM [17] was 1.8% and the inhibition at 1 µM [18] was 4.5%. It also gave an inhibition at 1 µM [19] of 2%, an inhibition at 1 µM [20] of 6.5% and an inhibition at 1 µM [21] of 6%. It also gave an inhibition at 1 µM [22] of 9%, an inhibition at 1 µM [23] of 7% and an inhibition at 1 µM [24] of 9%. For the same compound, the inhibition at 1 µM [25] was 6.5%, the inhibition at 1 µM [26] was 9.3% and the inhibition at 1 µM [27] was 16%. For the same compound, the inhibition at 1 µM [28] was 4.5%, the inhibition at 1 µM [29] was -4.5% and the inhibition at 1 µM [30] was 7%. For the same compound, the inhibition at 1 µM [31] was 45.5%, the inhibition at 1 µM [32] was 17% and the inhibition at 1 µM [33] was 2%.
